Measurements from patent US20180284095A1, “BIOMARKERS ASSOCIATED WITH LSD1 INHIBITORS AND USES THEREOF” (Oryzon Genomics, S.A., priority 2015, published 2018).

Legend:
Assay type in all cases: in vivo, mouse
[1] = system: S100A8; assay: Microarray gene expression in brain, spleen and liver of Hsd:Athymic Nude-Foxn1nu mice (Example 7)
Experimental: (§1) Total RNA was extracted from samples using the RNeasy extraction kit (Qiagen). The quality and concentration of the RNA was analyzed using the Agilent 2100 bioanalyzer and NanoDrop™ ND-1000 (Thermo Scientific). Samples with RNA integrity number (RIN)<6.0 were discarded. Total RNA (0.5 μg) amplification and labelling with Cy3 or Cy5 was carried out using the Eberwein mRNA amplification procedure (Van Gelder et al, Proc Natl Acad Sci USA 1990, 87:1663-1667) employing the MessageAmp™ aRNA amplification kit from Ambion (Applied Biosystems) following the manufacturer's instructions with minor modifications. As hybridization controls, plant mRNAs were transcribed from a plasmid containing the Zea mays Xet (xyloglucan endo-transglycosylase) cDNA and from a plasmid containing the Zea mays Zmmyb42 cDNA, independently prepared Cy3 and Cy5 labelled aRNA from these two RNAs using the Eberwein mRNA amplification procedure (as disclosed in Cerdà et al, Gen Comp Endocrinol 2008, 156:470-481).
(§2) The Cy3- and Cy5-labelled cRNAs and spikes were combined and hybridized to the microarray described in Example 2.6 for 17 h at 60° C. using Agilent's gaskets G2534-60002, G2534A hybridization chambers and DNA Hybridization Oven G2545A, according to the manufacturer's instructions. More specifically, equal amounts of Cy3 and Cy5 labeled Xet aRNA as well as equal amounts of Cy3 and Cy5 labeled Zmmyb42 aRNA were spiked into each mixture hybridized to the array. Arrays were washed and raw data were obtained using Agilent's DNA Microarray Scanner G2505B and Feature Extraction software (v10.1). The raw fluorescence intensity data were processed using applicant's proprietary software, and consists in the following operations:
(§3) Data normalization was carried out by an improved version of the nonlinear Q-splines normalization method (Workman et al., Genome Biol 2002, 3(9):research0048.1-0048.16). Normalization results were presented graphically as MA plots, as first described by Dudoit et al (Dudoit et al, Statistica Sinica, 2002, 12:111-139). Each point corresponds to a probe of the DNA array. M values (vertical axis) are the log-differential expression ratios. A values (horizontal axis) are the log-intensities of the spots. M and A are calculated from the Cy5 and Cy3 intensity values as of each spot. The DNA Array data is normalized using an improved version of non-linear Q-Splines normalization described by Workman et al., Genome Biol 2002, 3(9):research0048.1-0048.16. This process is useful to correct the deviation of the M values from the statistical assumption that most of the spots have M=0 in MA plots. The method allows the adjustment of all M values to form a cloud centered at M=0 in all intensity ranges. The data used to calculate the normalization fitting curve is the totality of the raw measurement dataset, excluding the signals for the probes for the spiked-in plant RNA controls and negative controls. In order to be able to normalize properly the data among all the experiments, the probe-set must include an important group of genes that should have no change (M=0) in the experiment. The normalization function is then applied to all the data, including controls.
(§4) Normalized and log-transformed data were used to calculate log 2 (sample/control) and Fold Change (FC) values. No background subtraction was applied to the signal intensity values during data processing, permitting robust selection of differentially expressed genes with low expression levels at the cost of potential sub-estimation of change when intensity levels are close to the array background level.
(§5) Powered Compound 3, 4 or 5 was dissolved in a 20% solution of 2-hydroxypropyl-R-cyclodextrin in water at the appropriate concentrations, vortexed and placed in an ultrasonic bath for 5 minutes.
(§6) Hsd:Athymic Nude-Foxn1nu mice were maintained in air- and temperature-controlled cages with regular supply of water and food. A maximum of 6 mice/cage were raised. […]

[2] = system: S100A9; assay: as above
Experimental: as §1, §2, §3, §4, §5, §6

[3] = system: TUBB2C; assay: Microarray gene expression in brain, spleen and liver of Hsd:Athymic Nude-Foxn1nu mice (Example 7), housekeeping gene
Experimental: as §1, §2, §3, §4, §5, §6

[4] = system: TUBB3; assay: as above
Experimental: as §1, §2, §3, §4, §5, §6

Structure (SMILES): NC(=O)CN[C@H]1C[C@@H]1c1ccc(OCc2ccccc2)cc1 (racemic) [Compound 3, 2-(((trans)-2-(4-(benzyloxy)phenyl)cyclopropyl)amino)acetamide]
- Hybridization signal sample_Cy5 ([1]; BRAIN, S100A8, 5 mg/kg): 229.714
- log2 (sample/control) ([1]; BRAIN, S100A8, 5 mg/kg vs VEH): −0.116
- Hybridization signal sample_Cy5 ([1]; BRAIN, S100A8, 10 mg/kg): 185.235
- log2 (sample/control) ([1]; BRAIN, S100A8, 10 mg/kg vs VEH): −0.3304
- Hybridization signal sample_Cy5 ([1]; BRAIN, S100A8, 20 mg/kg): 108.854
- log2 (sample/control) ([1]; BRAIN, S100A8, 20 mg/kg vs VEH): −1.218
- Hybridization signal sample_Cy5 ([1]; BRAIN, S100A8, 40 mg/kg): 89.5415
- log2 (sample/control) ([1]; BRAIN, S100A8, 40 mg/kg vs VEH): −1.598
- Hybridization signal sample_Cy5 ([1]; LIVER, S100A8, 5 mg/kg): 250.202
- log2 (sample/control) ([1]; LIVER, S100A8, 5 mg/kg vs VEH): −1.371
- Hybridization signal sample_Cy5 ([1]; LIVER, S100A8, 10 mg/kg): 280.387
- log2 (sample/control) ([1]; LIVER, S100A8, 10 mg/kg vs VEH): −1.1185
- Hybridization signal sample_Cy5 ([1]; LIVER, S100A8, 20 mg/kg): 266.01
- log2 (sample/control) ([1]; LIVER, S100A8, 20 mg/kg vs VEH): −1.318
- Hybridization signal sample_Cy5 ([1]; LIVER, S100A8, 40 mg/kg): 161.23
- log2 (sample/control) ([1]; LIVER, S100A8, 40 mg/kg vs VEH): −2.177
- Hybridization signal sample_Cy5 ([1]; SPLEEN, S100A8, 5 mg/kg): 4533.52
- log2 (sample/control) ([1]; SPLEEN, S100A8, 5 mg/kg vs VEH): −1.181
- Hybridization signal sample_Cy5 ([1]; SPLEEN, S100A8, 10 mg/kg): 6342.81
- log2 (sample/control) ([1]; SPLEEN, S100A8, 10 mg/kg vs VEH): −0.4706
- Hybridization signal sample_Cy5 ([1]; SPLEEN, S100A8, 20 mg/kg): 7014.94
- log2 (sample/control) ([1]; SPLEEN, S100A8, 20 mg/kg vs VEH): −0.5296
- Hybridization signal sample_Cy5 ([1]; SPLEEN, S100A8, 40 mg/kg): 4802.3
- log2 (sample/control) ([1]; SPLEEN, S100A8, 40 mg/kg vs VEH): −1.65
- Hybridization signal sample_Cy5 ([2]; BRAIN, S100A9, 5 mg/kg): 756.846
- log2 (sample/control) ([2]; BRAIN, S100A9, 5 mg/kg vs VEH): 0.1106
- Hybridization signal sample_Cy5 ([2]; BRAIN, S100A9, 10 mg/kg): 465.025
- log2 (sample/control) ([2]; BRAIN, S100A9, 10 mg/kg vs VEH): −0.5589
- Hybridization signal sample_Cy5 ([2]; BRAIN, S100A9, 20 mg/kg): 268.93
- log2 (sample/control) ([2]; BRAIN, S100A9, 20 mg/kg vs VEH): −1.388
- Hybridization signal sample_Cy5 ([2]; BRAIN, S100A9, 40 mg/kg): 208.488
- log2 (sample/control) ([2]; BRAIN, S100A9, 40 mg/kg vs VEH): −1.798
- Hybridization signal sample_Cy5 ([2]; LIVER, S100A9, 5 mg/kg): 820.026
- log2 (sample/control) ([2]; LIVER, S100A9, 5 mg/kg vs VEH): −1.469
- Hybridization signal sample_Cy5 ([2]; LIVER, S100A9, 10 mg/kg): 841.06
- log2 (sample/control) ([2]; LIVER, S100A9, 10 mg/kg vs VEH): −1.41
- Hybridization signal sample_Cy5 ([2]; LIVER, S100A9, 20 mg/kg): 862.896
- log2 (sample/control) ([2]; LIVER, S100A9, 20 mg/kg vs VEH): −1.44
- Hybridization signal sample_Cy5 ([2]; LIVER, S100A9, 40 mg/kg): 412.209
- log2 (sample/control) ([2]; LIVER, S100A9, 40 mg/kg vs VEH): −2.571
- Hybridization signal sample_Cy5 ([2]; SPLEEN, S100A9, 5 mg/kg): 10802.4
- log2 (sample/control) ([2]; SPLEEN, S100A9, 5 mg/kg vs VEH): −1.213
- Hybridization signal sample_Cy5 ([2]; SPLEEN, S100A9, 10 mg/kg): 15182.8
- log2 (sample/control) ([2]; SPLEEN, S100A9, 10 mg/kg vs VEH): −0.5812
- Hybridization signal sample_Cy5 ([2]; SPLEEN, S100A9, 20 mg/kg): 15717.4
- log2 (sample/control) ([2]; SPLEEN, S100A9, 20 mg/kg vs VEH): −0.5179
- Hybridization signal sample_Cy5 ([2]; SPLEEN, S100A9, 40 mg/kg): 13461.8
- log2 (sample/control) ([2]; SPLEEN, S100A9, 40 mg/kg vs VEH): −1.719
- Hybridization signal sample_Cy5 ([3]; BRAIN, 5 mg/kg): 5903.12
- log2 (sample/control) ([3]; BRAIN, 5 mg/kg vs VEH): 0.09115
- Hybridization signal sample_Cy5 ([3]; BRAIN, 10 mg/kg): 6228.65
- log2 (sample/control) ([3]; BRAIN, 10 mg/kg vs VEH): −0.008955
- Hybridization signal sample_Cy5 ([3]; BRAIN, 20 mg/kg): 6935.27
- log2 (sample/control) ([3]; BRAIN, 20 mg/kg vs VEH): 0.07289
- Hybridization signal sample_Cy5 ([3]; BRAIN, 40 mg/kg): 7405.34
- log2 (sample/control) ([3]; BRAIN, 40 mg/kg vs VEH): 0.06328
- Hybridization signal sample_Cy5 ([3]; LIVER, 5 mg/kg): 2676.03
- log2 (sample/control) ([3]; LIVER, 5 mg/kg vs VEH): −0.1194
- Hybridization signal sample_Cy5 ([3]; LIVER, 10 mg/kg): 2301.43
- log2 (sample/control) ([3]; LIVER, 10 mg/kg vs VEH): −0.2687
- Hybridization signal sample_Cy5 ([3]; LIVER, 20 mg/kg): 2059.18
- log2 (sample/control) ([3]; LIVER, 20 mg/kg vs VEH): −0.578
- Hybridization signal sample_Cy5 ([3]; LIVER, 40 mg/kg): 1551.2
- log2 (sample/control) ([3]; LIVER, 40 mg/kg vs VEH): −0.9728
- Hybridization signal sample_Cy5 ([3]; SPLEEN, 5 mg/kg): 6245.92
- log2 (sample/control) ([3]; SPLEEN, 5 mg/kg vs VEH): −0.05272
- Hybridization signal sample_Cy5 ([3]; SPLEEN, 10 mg/kg): 4019.89
- log2 (sample/control) ([3]; SPLEEN, 10 mg/kg vs VEH): −0.4863
- Hybridization signal sample_Cy5 ([3]; SPLEEN, 20 mg/kg): 4597.76
- log2 (sample/control) ([3]; SPLEEN, 20 mg/kg vs VEH): −0.4097
- Hybridization signal sample_Cy5 ([3]; SPLEEN, 40 mg/kg): 8986.8
- log2 (sample/control) ([3]; SPLEEN, 40 mg/kg vs VEH): −0.9476
- Hybridization signal sample_Cy5 ([4]; BRAIN, TUBB3, 5 mg/kg): 2574.04
- log2 (sample/control) ([4]; BRAIN, TUBB3, 5 mg/kg vs VEH): −0.223
- Hybridization signal sample_Cy5 ([4]; BRAIN, TUBB3, 10 mg/kg): 3248.86
- log2 (sample/control) ([4]; BRAIN, TUBB3, 10 mg/kg vs VEH): −0.06283
- Hybridization signal sample_Cy5 ([4]; BRAIN, TUBB3, 20 mg/kg): 3078.53
- log2 (sample/control) ([4]; BRAIN, TUBB3, 20 mg/kg vs VEH): −0.0238
- Hybridization signal sample_Cy5 ([4]; BRAIN, TUBB3, 40 mg/kg): 3573.76
- log2 (sample/control) ([4]; BRAIN, TUBB3, 40 mg/kg vs VEH): 0.02054
- Hybridization signal sample_Cy5 ([4]; LIVER, TUBB3, 5 mg/kg): 64.7691
- log2 (sample/control) ([4]; LIVER, TUBB3, 5 mg/kg vs VEH): −0.09742
- Hybridization signal sample_Cy5 ([4]; LIVER, TUBB3, 10 mg/kg): 68.7068
- log2 (sample/control) ([4]; LIVER, TUBB3, 10 mg/kg vs VEH): 0.02345
- Hybridization signal sample_Cy5 ([4]; LIVER, TUBB3, 20 mg/kg): 48.4567
- log2 (sample/control) ([4]; LIVER, TUBB3, 20 mg/kg vs VEH): −0.04225
- Hybridization signal sample_Cy5 ([4]; LIVER, TUBB3, 40 mg/kg): 46.9101
- log2 (sample/control) ([4]; LIVER, TUBB3, 40 mg/kg vs VEH): 0.01927
- Hybridization signal sample_Cy5 ([4]; SPLEEN, TUBB3, 5 mg/kg): 58.6845
- log2 (sample/control) ([4]; SPLEEN, TUBB3, 5 mg/kg vs VEH): −0.02944
- Hybridization signal sample_Cy5 ([4]; SPLEEN, TUBB3, 10 mg/kg): 52.6685
- log2 (sample/control) ([4]; SPLEEN, TUBB3, 10 mg/kg vs VEH): −0.02259
- Hybridization signal sample_Cy5 ([4]; SPLEEN, TUBB3, 20 mg/kg): 62.5361
- log2 (sample/control) ([4]; SPLEEN, TUBB3, 20 mg/kg vs VEH): −0.1183
- Hybridization signal sample_Cy5 ([4]; SPLEEN, TUBB3, 40 mg/kg): 88.3418
- log2 (sample/control) ([4]; SPLEEN, TUBB3, 40 mg/kg vs VEH): 0.169
